This is an account of results in US20080275110A1, “Sesamin/Episesamin Compositions” (priority 2004, published 2008).

Molecules are shown by their SMILES.

Data set [1] is described as follows: Oral absorption of episesamin and its transfer into blood circulation (II), lowered sesamin ratios. Also on record: species or system rats. The conditions noted are these: male, SD (IGS), rat, in vivo, 10 mg/kg. On the procedure: (§1) SD (IGS) male rats (6-wk old) were purchased from CHARLES RIVER JAPAN INC. and habituated in the test environment for a week; the animals that were seen to grow normally were subjected to the test. The rats fasted overnight were divided into six groups each consisting of 5 heads; the high purity sesamin and episesamin obtained in Example 1 were incorporated at varying weight ratios of 6:4, 5:5, 4:6, 3:7, 1:9 and 0:10 to prepare sesamin/episesamin mixtures, which were dissolved in olive oil at a dose of 10 mg/kg and administered perorally to the rats via a feeding tube. […] After adding an internal standard, solid-phase extraction was performed with Oassis HLB and the liquid extract was concentrated under vacuum, suspended in methanol, passed through a filter, and subjected to LC-MS/MS for quantification of sesamin and episesamin. The quantity of sesamin or episesamin was determined from the ratio between the peak area of sesamin or episesamin and that of UDESMIN (Funakoshi Co, Ltd.) used as the internal standard. […]
With a view to prescribing effective mixing ratios of sesamin, the action of further lowered ratios of sesamin was evaluated in accordance with the method of Example 2. […]

For data set [2] the following is noted: rat, in vivo, po; cited from earlier work.
For a further data set, the system named is fatty acid synthases. The note with it: rats, separately administered orally; cited from earlier work.
Data set [3] deals with Deoxycorticosterone Acetate-Salt (DOCA-Salt) Induced Hypertension Model Rats. Description: Blood pressure lowering action in DOCA-salt induced hypertension model rats (tail-cuff SBP). It counts as in vivo, SD male rats. The note with it: 100 mg/kg single oral; for changes in blood pressure for 24 hours after the single administration: Example 4, FIG. 3, n=5-7; for changes in blood pressure 8 hours after the administration: Example 4, FIG. 4. The protocol:
SD male rats (6-wk old) (purchased from Japan SLC, Inc.) were subjected to surgery for removing the right kidney under anesthetization with Nembutal. After recuperation for a week, the rats were administered subcutaneously with DOCA-salt twice a week at a dose of 15 mg/kg, and allowed to drink 1% saline. The systolic blood pressure (SBP) of each animal was measured by a tail-cuff method with a non-invasive automatic blood pressure measuring apparatus (BP-98A, Softron, Tokyo). At 5 weeks after the start of treatment with DOCA-salt, blood pressure was measured and the animals in which adequate elevation of blood pressure was verified were used in the following experiment. Rats fasted for 8 hours were divided into a control group and three test groups. The control group was administered olive oil only. For the test groups, the high purity sesamin and episesamin obtained in Example 1 were incorporated at varying weight ratios of 10:0, 5:5 and 0:10 to prepare sesamin/episesamin mixtures, which were suspended in olive oil at a dose of 100 mg/kg. Single oral administration of olive oil or the suspension was effected via a feeding tube. Both before the administration and 2, 4, 6, 8, 10, 12 and 24 hours after the administration, SBP measurement was conducted. Diet was applied after the blood pressure measurement at 12 hours. Testing was conducted at 1-wk intervals and the same head was subjected to no more than three measurements.
Sesamin and episesamin were incorporated at varying weight ratios of 5:5, 3:7 and 1:9 to prepare sesamin/episesamin mixtures, which were dissolved in olive oil at a dose of 50 mg/kg. Single oral administration of the solution was effected via a feeding tube, and for blood pressure measurement was conducted.

A short description of data set [4]: Oral absorption of episesamin and its transfer into blood circulation (I), LC-MS/MS of plasma. Also on record: species or system SD (IGS) male rats. The note with it: male, SD (IGS), rat, in vivo, 10 mg/kg. On the procedure: as §1
The concentration of episesamin in blood peaked in about 6 hours after the administration, then decreased gradually until it became almost undetectable in 24 hours. From the blood concentration curve for 0-24 hours, the area under the curve (AUC) was determined as an index of absorbed quantity. […]

The test system of data set [5] is β-oxidation enzymes in the liver. The note with it: rats, separately administered orally; cited from earlier work.
The subject of the next data set is β-oxidation genes. The data set can be described thus: Effects on the expression of β-oxidation genes, quantitative RT-PCR. It counts as in vivo, Wistar male rats. The conditions noted are these: Example 6, FIGS. 6A/6B; 200 mg/kg peroral three times at 24-hr intervals, 4 hours after final administration. On the procedure: Wistar male rats (6-wk old) were purchased from CLEA Japan, Inc. and habituated in the test environment for a week; the animals that were seen to grow normally were subjected to the test. The rats were divided into six groups each consisting of 5 heads. The control group was administered with olive oil only. For the test groups, the high purity sesamin and episesamin obtained in Example 1 were incorporated at varying weight ratios of 10:0, 5:5, 3:7, 1:9 and 0:10 to prepare sesamin/episesamin mixtures, which were suspended in olive oil at a dose of 200 mg/kg. The rats were administered perorally with olive oil or the suspension three times at 24-hr intervals. Four hours after the final administration, the kidney was removed from each rat under anesthetization with Nembutal; after extracting RNA, effects on the expression of 10 β-oxidation genes were investigated by quantitative RT-PCR using TaqMan chemistry (Heid C A, Stevens J, Livak K J, Williams P M, Real time quantitative PCR, Genome Res. 1996 6(10):986-94).
In contrast, each of the groups administered with the sesamin/episesamin mixture experienced more elevated gene expression than the group administered with episesamin alone. The effect of the mixing ratio was somewhat variable from one gene to another but no significant difference was found among the three groups administered with the sesamin/episesamin mixture.

`c1cc2c(cc1[C@H]1OC[C@H]3[C@@H]1CO[C@H]3c1ccc3c(c1)OCO3)OCO2` [episesamin]: the “percent absorption of episesamin” value in data set [1] came out at 59.7%. The “transfer into organs relative to sesamin” value in data set [2] was “at least twice as much as that of sesamin”. The “activity for inhibiting fatty acid synthases, sesamin versus episesamin” value with fatty acid synthases is “no difference between sesamin and episesamin”. In data set [3], the “changes in blood pressure for 24 hours after the single administration” value is reported as “No significant changes” and the “changes in blood pressure 8 hours after the administration” value is −6 mmHg. Besides, the “percent absorption of episesamin (AUC 0-24 hours divided by relative amount of episesamin administered)” value in data set [4] came to 72.5%. In addition, the “gene expression and enzymatic activity of β-oxidation enzymes in the liver compared with sesamin” value in data set [5] is reported as “markedly increased”. Besides, in the data set on β-oxidation genes, the “expression of β-oxidation genes” value is listed as “many genes were expressed in increased amounts”.
Regarding `c1cc2c(cc1[C@H]1OC[C@H]3[C@@H]1CO[C@@H]3c1ccc3c(c1)OCO3)OCO2` [sesamin], the “activity for inhibiting fatty acid synthases, sesamin versus episesamin” value in the data set with fatty acid synthases is “no difference between sesamin and episesamin”. Besides, in data set [3], the “changes in blood pressure for 24 hours after the single administration” value is recorded as “No significant changes” and the “changes in blood pressure 8 hours after the administration” value is recorded as −13 mmHg. The “expression of β-oxidation genes” value in the data set on β-oxidation genes is “hardly rose”.
